The results in this text go back to ChEMBL document CHEMBL1153782, “3D QSAR study of the toxicity of trichothecene mycotoxins” (Eur J Med Chem, 2009).

The subject of experiment [1] is Saccharomyces cerevisiae. Nature of the experiment: Cytotoxicity against yeast cells assessed as logarithm of ratio of toxicity of test compound to Tetraol. In kind it is functional, organism-based.
The test system of experiment [2] is Saccharomyces cerevisiae. Nature of the experiment: Cytotoxicity against yeast cells relative to Tetraol. It is filed as functional, organism-based.

For the molecule `CC(=O)OC[C@]12CCC(C)=C[C@H]1O[C@@H]1[C@H](OC(C)=O)[C@@H](OC(C)=O)[C@@]2(C)[C@]12CO2`, the Activity in the experiment with Saccharomyces cerevisiae [1] was 2.2. Besides, the Ratio with Saccharomyces cerevisiae [2] is 2.2.
For `CC(=O)OC[C@]12CCC(C)=C[C@H]1O[C@@H]1[C@H](O)[C@@H](OC(C)=O)[C@@]2(C)[C@]12CO2`, the Activity in the experiment with Saccharomyces cerevisiae [1] worked out at 343. Further, the Ratio with Saccharomyces cerevisiae [2] was found to be 343.
